According to US12139487B2, “Compounds and uses thereof” (Foghorn Therapeutics Inc., priority 2022, dated 2024):
pIC50: −log10 of the molar value.

System: BRM-dependent transcription (BRG1 mutant lung cancer cell line A549)
Experiment: BRM-dependent transcription, MMTV luciferase reporter in BRG1 mutant A549 cells
Type: cell-based
Details: Table 11; for pIC50: A549-MMTV luciferase reporter, dexamethasone induced, 6 hours; for Ratio (MDA-MMTV IC50 (μM) divided by A549-MMTV IC50 (μM)): MMTV luciferase reporter cell lines, selectivity BRG1/BRM
How it was run: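 A549 (BRG1-mutant) cells engineered with a BRM-dependent MMTV luciferase reporter; transcription induced with dexamethasone in presence of compound at various concentrations. Luminescence read 6 h after stimulation.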

## O=C(NCc1cc2nc(-c3ccc(OCCO)c(C4CC4)n3)ccc2cn1)c1cc(Cl)c2c(c1)S(=O)(=O)[C@@H](F)COC2 [Compound 428]
Homo sapiens, A549, 6 h
  pIC50: 7.69
  Ratio (MDA-MMTV IC50 (μM) divided by A549-MMTV IC50 (μM)): 26.26

## CCOc1nn(-c2ccc3cnc(CNC(=O)c4cc(Cl)c5c(c4)S(=O)(=O)[C@@H](F)COC5)cc3n2)cc1F [Compound 472]
Homo sapiens, A549, 6 h
  pIC50: 7.96
  Ratio (MDA-MMTV IC50 (μM) divided by A549-MMTV IC50 (μM)): 39.75

## O=C(NCc1cc2nc(-c3cnc(OC(F)F)c(C4CC4)n3)ccc2cn1)c1cc(C(F)F)c2c(c1)S(=O)(=O)[C@@H](F)COC2 [Compound 465]
Homo sapiens, A549, 6 h
  pIC50: 7.65
  Ratio (MDA-MMTV IC50 (μM) divided by A549-MMTV IC50 (μM)): 55.20

## COc1ccccc1-c1ccc2cnc(CNC(=O)c3cc(F)c4c(c3)S(=O)(=O)[C@@H](F)CCO4)cc2n1 [Compound 338]
Homo sapiens, A549, 6 h
  pIC50: 7.85
  Ratio (MDA-MMTV IC50 (μM) divided by A549-MMTV IC50 (μM)): 21.68

## CC(C)c1ccc(-c2ccc3cnc(CNC(=O)c4cc(Br)c5c(c4)S(=O)(=O)[C@@H](F)CCO5)cc3n2)c(OC(F)F)n1 [Compound 402]
Homo sapiens, A549, 6 h
  pIC50: 7.66
  Ratio (MDA-MMTV IC50 (μM) divided by A549-MMTV IC50 (μM)): 26.98

## O=C(NCc1cc2nc(-c3cccc(C(F)(F)F)n3)ccc2cn1)c1cc(F)c2c(c1)S(=O)(=O)[C@@H](F)CCO2 [Compound 335]
Homo sapiens, A549, 6 h
  pIC50: 7.79
  Ratio (MDA-MMTV IC50 (μM) divided by A549-MMTV IC50 (μM)): 30.32

## CCOc1nc([C@H](F)CF)ccc1-c1ccc2cnc(CNC(=O)c3cc(F)c4c(c3)S(=O)(=O)[C@@H](F)CCO4)cc2n1 [Compound 390]
Homo sapiens, A549, 6 h
  pIC50: 8.13
  Ratio (MDA-MMTV IC50 (μM) divided by A549-MMTV IC50 (μM)): 22.68

## O=C(NCc1cc2nc(-c3ccc([C@H](F)CF)c(C4CC4)n3)ccc2cn1)c1cc(F)c2c(c1)S(=O)(=O)[C@@H](F)CCO2 [Compound 411]
Homo sapiens, A549, 6 h
  pIC50: 8.07
  Ratio (MDA-MMTV IC50 (μM) divided by A549-MMTV IC50 (μM)): 24.27

## CCOc1nc([C@@H](F)CF)ccc1-c1ccc2cnc(CNC(=O)c3cc(Br)c4c(c3)S(=O)(=O)[C@@H](F)COC4)cc2n1 [Compound 517]
  pIC50: 7.69
  Ratio (MDA-MMTV IC50 (μM) divided by A549-MMTV IC50 (μM)): 35.51

## COc1nc(C(F)(F)F)ccc1-c1ccc2cnc(CNC(=O)c3cc(Cl)c4c(c3)S(=O)(=O)[C@@H](F)CCO4)cc2n1 [Compound 348]
Homo sapiens, A549, 6 h
  pIC50: 7.86
  Ratio (MDA-MMTV IC50 (μM) divided by A549-MMTV IC50 (μM)): 30.79

## [2H]C([2H])([2H])Oc1nc([C@H](F)CF)ccc1-c1ccc2cnc(CNC(=O)c3cc(F)c4c(c3)S(=O)(=O)[C@@H](F)CCO4)cc2n1 [Compound 394]
Homo sapiens, A549, 6 h
  pIC50: 8.04
  Ratio (MDA-MMTV IC50 (μM) divided by A549-MMTV IC50 (μM)): 24.90

## O=C(NCc1cc2nc(-c3cccc(C4CC4(F)F)n3)ccc2cn1)c1cc(F)c2c(c1)S(=O)(=O)[C@@H](F)CCO2 (stereo partly drawn) [Compound 336]
Homo sapiens, A549, 6 h
  pIC50: 7.82
  Ratio (MDA-MMTV IC50 (μM) divided by A549-MMTV IC50 (μM)): 22.47

## COc1nc(C(C)(F)F)ccc1-c1ccc2cnc(CNC(=O)c3cc(C(F)F)c4c(c3)S(=O)(=O)[C@@H](F)COC4)cc2n1 [Compound 467]
Homo sapiens, A549, 6 h
  pIC50: 7.77
  Ratio (MDA-MMTV IC50 (μM) divided by A549-MMTV IC50 (μM)): 24.85

## O=C(NCc1cc2nc(-n3cc(F)c(OC4CC4)n3)ccc2cn1)c1cc(F)c2c(c1)S(=O)(=O)[C@@H](F)CCO2 [Compound 386]
Homo sapiens, A549, 6 h
  pIC50: 7.59
  Ratio (MDA-MMTV IC50 (μM) divided by A549-MMTV IC50 (μM)): 23.22

## COCc1ccc(-c2ccc3cnc(CNC(=O)c4cc(F)c5c(c4)S(=O)(=O)[C@@H](F)CCO5)cc3n2)nc1C1CC1 [Compound 354]
Homo sapiens, A549, 6 h
  pIC50: 7.76
  Ratio (MDA-MMTV IC50 (μM) divided by A549-MMTV IC50 (μM)): 26.53

## O=C(NCc1cc2nc(-c3ccnc(C4CC4(F)F)n3)ccc2cn1)c1cc(Cl)c2c(c1)S(=O)(=O)[C@@H](F)COC2 (stereo partly drawn) [Compound 420]
Homo sapiens, A549, 6 h
  pIC50: 7.59
  Ratio (MDA-MMTV IC50 (μM) divided by A549-MMTV IC50 (μM)): 24.69

## C[C@@H]1CCN1c1cnc2c(-c3ccc4cnc(CNC(=O)c5cc(Cl)c6c(c5)S(=O)(=O)[C@@H](F)COC6)cc4n3)cccc2c1 [Compound 498]
  pIC50: 8.23
  Ratio (MDA-MMTV IC50 (μM) divided by A549-MMTV IC50 (μM)): 38.20

## [2H]C([2H])([2H])Oc1ccc(-c2ccc3cnc(CNC(=O)c4cc(Br)c5c(c4)S(=O)(=O)[C@@H](F)COC5)cc3n2)nc1[C@H]1CC1(F)F [Compound 493]
Homo sapiens, A549, 6 h
  pIC50: 7.71
  Ratio (MDA-MMTV IC50 (μM) divided by A549-MMTV IC50 (μM)): 49.65

## CCOc1cccc(-c2ccc3cnc(CNC(=O)c4cc(F)c5c(c4)S(=O)(=O)[C@@H](F)CCO5)cc3n2)n1 [Compound 358]
Homo sapiens, A549, 6 h
  pIC50: 7.82
  Ratio (MDA-MMTV IC50 (μM) divided by A549-MMTV IC50 (μM)): 27.40

## O=C(NCc1cc2nc(-c3ccc(C(F)F)c(C4CC4)n3)ccc2cn1)c1cc(Br)c2c(c1)S(=O)(=O)[C@@H](F)COC2 [Compound 442]
Homo sapiens, A549, 6 h
  pIC50: 8.07
  Ratio (MDA-MMTV IC50 (μM) divided by A549-MMTV IC50 (μM)): 25.83

## [2H]C([2H])([2H])C([2H])([2H])Oc1nc(C(F)F)ccc1-c1ccc2cnc(CNC(=O)c3cc(Cl)c4c(c3)S(=O)(=O)[C@@H](F)COC4)cc2n1 [Compound 495]
Homo sapiens, A549, 6 h
  pIC50: 7.82
  Ratio (MDA-MMTV IC50 (μM) divided by A549-MMTV IC50 (μM)): 32.03

## COc1nc(C(F)F)ccc1-c1ccc2cnc(CNC(=O)c3cc(Br)c4c(c3)S(=O)(=O)[C@@H](F)COC4)cc2n1 [Compound 410]
Homo sapiens, A549, 6 h
  pIC50: 7.84
  Ratio (MDA-MMTV IC50 (μM) divided by A549-MMTV IC50 (μM)): 27.39

## CCOc1nc([C@@H](F)CF)ccc1-c1ccc2cnc(CNC(=O)c3cc(Cl)c4c(c3)S(=O)(=O)[C@@H](F)CCO4)cc2n1 [Compound 423]
Homo sapiens, A549, 6 h
  pIC50: 7.98
  Ratio (MDA-MMTV IC50 (μM) divided by A549-MMTV IC50 (μM)): 32.08

## O=C(NCc1cc2nc(-c3ccc([C@@H](F)C(F)F)c(C4CC4)n3)ccc2cn1)c1cc(Cl)c2c(c1)S(=O)(=O)[C@@H](F)COC2 [Compound 482]
Homo sapiens, A549, 6 h
  pIC50: 7.92
  Ratio (MDA-MMTV IC50 (μM) divided by A549-MMTV IC50 (μM)): 25.21

## O=C(NCc1cc2nc(-c3ccc(OC(F)F)c(C4CC4)n3)ccc2cn1)c1cc(Br)c2c(c1)S(=O)(=O)[C@@H](F)COC2 [Compound 408]
Homo sapiens, A549, 6 h
  pIC50: 7.78
  Ratio (MDA-MMTV IC50 (μM) divided by A549-MMTV IC50 (μM)): 32.34

## CCOc1nc([C@H](F)CF)ccc1-c1ccc2cnc(CNC(=O)c3cc(C(F)F)c4c(c3)S(=O)(=O)[C@@H](F)COC4)cc2n1 [Compound 518]
  pIC50: 7.68
  Ratio (MDA-MMTV IC50 (μM) divided by A549-MMTV IC50 (μM)): 35.47

## COc1nc([C@](C)(F)C(F)F)ccc1-c1ccc2cnc(CNC(=O)c3cc(F)c4c(c3)S(=O)(=O)[C@@H](F)CCOC4)cc2n1 [Compound 367]
Homo sapiens, A549, 6 h
  pIC50: 8.52
  Ratio (MDA-MMTV IC50 (μM) divided by A549-MMTV IC50 (μM)): 17.70

## O=C(NCc1cc2nc(-c3ccc(OC(F)F)c(C4CC4)n3)ccc2cn1)c1cc(Br)c2c(c1)S(=O)(=O)[C@@H](F)CCO2 [Compound 400]
Homo sapiens, A549, 6 h
  pIC50: 7.60
  Ratio (MDA-MMTV IC50 (μM) divided by A549-MMTV IC50 (μM)): 47.75

## O=C(NCc1cc2nc(-c3ccc(C(F)F)c(N4CC(F)C4)n3)ccc2cn1)c1cc(F)c2c(c1)S(=O)(=O)[C@@H](F)CCO2 [Compound 441]
Homo sapiens, A549, 6 h
  pIC50: 8.05
  Ratio (MDA-MMTV IC50 (μM) divided by A549-MMTV IC50 (μM)): 21.14

## [2H]C1([2H])OC([2H])([2H])[C@H](F)S(=O)(=O)c2cc(C(=O)NCc3cc4nc(-c5cccc(OC(F)F)n5)ccc4cn3)cc(F)c21 [Compound 379]
Homo sapiens, A549, 6 h
  pIC50: 7.70
  Ratio (MDA-MMTV IC50 (μM) divided by A549-MMTV IC50 (μM)): 22.55

## CCOc1nc([C@@H](F)CF)ccc1-c1ccc2cnc(CNC(=O)c3cc(Cl)c4c(c3)S(=O)(=O)[C@@H](F)COC4)cc2n1 [Compound 516]
  pIC50: 7.92
  Ratio (MDA-MMTV IC50 (μM) divided by A549-MMTV IC50 (μM)): 31.51

## COc1nc(C(F)F)ccc1-c1ccc2cnc(CNC(=O)c3cc(Br)c4c(c3)S(=O)(=O)[C@@H](F)CCO4)cc2n1 [Compound 365]
Homo sapiens, A549, 6 h
  pIC50: 7.67
  Ratio (MDA-MMTV IC50 (μM) divided by A549-MMTV IC50 (μM)): 24.82

## O=C(NCc1cc2nc(-c3cccc4c3OC(F)(F)O4)ccc2cn1)c1cc(F)c2c(c1)S(=O)(=O)[C@@H](F)COC2 [Compound 458]
Homo sapiens, A549, 6 h
  pIC50: 7.81
  Ratio (MDA-MMTV IC50 (μM) divided by A549-MMTV IC50 (μM)): 23.65

## COC1(c2cccc(-c3ccc4cnc(CNC(=O)c5cc(F)c6c(c5)S(=O)(=O)[C@@H](F)CCO6)cc4n3)n2)CC1 [Compound 403]
Homo sapiens, A549, 6 h
  pIC50: 7.85
  Ratio (MDA-MMTV IC50 (μM) divided by A549-MMTV IC50 (μM)): 27.49

## [2H]C([2H])([2H])Oc1nc([C@H](C)F)ccc1-c1ccc2cnc(CNC(=O)c3cc(F)c4c(c3)S(=O)(=O)[C@@H](F)CCO4)cc2n1 [Compound 384]
Homo sapiens, A549, 6 h
  pIC50: 8.19
  Ratio (MDA-MMTV IC50 (μM) divided by A549-MMTV IC50 (μM)): 29.60

## COc1ccc(-c2ccc3cnc(CNC(=O)c4cc(C(F)F)c5c(c4)S(=O)(=O)[C@@H](F)COC5)cc3n2)nc1C1CC1(F)F (stereo partly drawn) [Compound 434]
Homo sapiens, A549, 6 h
  pIC50: 8.06
  Ratio (MDA-MMTV IC50 (μM) divided by A549-MMTV IC50 (μM)): 41.19

## CN(C)c1nccc(-c2ccc3cnc(CNC(=O)c4cc(F)c5c(c4)S(=O)(=O)[C@@H](F)CCO5)cc3n2)n1 [Compound 349]
Homo sapiens, A549, 6 h
  pIC50: 7.89
  Ratio (MDA-MMTV IC50 (μM) divided by A549-MMTV IC50 (μM)): 34.91

## O=C(NCc1cc2nc(-c3cccc(C4CC4)n3)ccc2cn1)c1cc(C(F)F)c2c(c1)S(=O)(=O)[C@@H](F)COC2 [Compound 429]
Homo sapiens, A549, 6 h
  pIC50: 7.77
  Ratio (MDA-MMTV IC50 (μM) divided by A549-MMTV IC50 (μM)): 32.94

## CCOc1nc([C@H](F)CF)ccc1-c1ccc2cnc(CNC(=O)c3cc(C(F)F)c4c(c3)S(=O)(=O)[C@@H](F)COC4)cc2n1 [Compound 460]
  pIC50: 8.00
  Ratio (MDA-MMTV IC50 (μM) divided by A549-MMTV IC50 (μM)): 41.47
